{"source": "patent US20240287525A1", "about": "“COMPOSITIONS AND METHODS FOR TREATING CANCER” (OSLO UNIVERSITETSSYKEHUS HF, priority 2021, published 2024)", "test_system": "MTHFD2", "assay": "MTHFD2 knockdown efficiency by qPCR and Western analyses after siRNA transfection", "format": "cell-based", "conditions": "LNCaP cells, mRNA by qRT-PCR", "experimental": "FIG. 1: MTHFD2 knockdown inhibits growth of PCa cells, PDX-derived organoids, and tumor xenografts. A. MTHFD2 knockdown efficiency was determined in LNCaP and DU145 cells that were transfected with either scrambled siRNA or two independent MTHFD2-specific siRNAs for 48 hours by both qPCR and Western analyses. B. LNCaP, VCaP, or 22Rv1 cells transfected with control or MTHFD2-specific siRNAs were cultured for the indicated times, and cell numbers were determined by trypan blue staining. *p<0.01. MTHFD2 knockdown hinders colony (C-D) and prostatosphere (E) formation ability of PCa cells. F. Viability of normal prostate cells is not affected by MTHFD2 knockdown. G. MTHFD2 expression and knockdown efficiency in various LuCaP organoids were assessed by Western analysis.\nFIG. 4: A. LNCaP cells were transfected with MTHFD2 (siMTHFD2 #1) or non-targeting control siRNAs. Cells were cultured for the indicated time points, collected, and MTHFD2 mRNA levels were determined by qRT-PCR. […] B. LNCaP and DU145 cells were reverse transfected with either control siRNA or two independent siRNAs against MTHFD2. After 48 hours, relative cell viability was determined using the CCK8 assay. C. Bar graph showing quantification of PDX derived organoids representing the number of organoids per field in FIG. 1H.\nBriefly, cells were reverse transfected using Lipofectamine RNAiMAX transfection reagent (ThermoFisher) and plated into 96-well or 6-well plates. Cells in 6-well plates were cultured for the indicated times, trypsinized, stained with trypan blue, and counted using a hemocytometer. […] Cells plated into the 96-well plates were cultured for 48 hrs and cell viability was measured using the CCK-8 kit (Bimake, Munich, Germany).\nRNA extraction, reverse transcription and quantitative polymerase chain reaction (qPCR) were performed as described previously (Sheng X, Arnoldussen Y J, Storm M. Tesikova M, Nenseth H Z, Zhao S, et al. Divergent androgen regulation of unfolded protein response pathways drives prostate cancer. EMBO Mol Med 2015; 7:788-801). […]"}
{"substance": "siMTHFD2-2: MTHFD2-specific siRNA CAGGCCAGCTCAAGAAGCAAA; location 1140; positive control in Example 3 (chain 2 CAGGCCAGCUCAAGAAGCAAA; chemistry not given here; one strand in two spellings)", "values": [{"measurement": "MTHFD2 knockdown, maximal", "setting": "72 hours post-transfection", "result": "~80", "unit": "%"}, {"measurement": "return of MTHFD2 to basal levels", "setting": "time course after transfection", "result": "≤ 12", "unit": "days"}, {"measurement": "time MTHFD2 remained significantly downregulated", "setting": "time course after transfection", "result": "more than one week"}]}
